Data as given in the supplement of paper PMC10307832.

What was measured:
Assay in all cases: relative viability (nuclei count vs DMSO), 5 days (fraction); higher = more cells survive
Gemcitabine + Vorinostat = compound: Nc1ccn([C@@H]2O[C@H](CO)[C@@H](O)C2(F)F)c(=O)n1 [Gemcitabine] + O=C(CCCCCCC(=O)Nc1ccccc1)NO [Vorinostat] (partner 1 µM)
In short: (§1)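 Relative viability equals treated-well nuclei counts divided by vehicle-well nuclei counts. Counts came from 4× images of lung cancer cell lines grown in 1536-well plates for 5 days after pin-tool dosing on the day after seeding. Dosing used one drug alone or a fixed anchor-drug dose plus five library-drug doses (not always all listed) in √10 steps, and values are medians of duplicate plates.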

Gemcitabine + Dasatinib = compound: Nc1ccn([C@@H]2O[C@H](CO)[C@@H](O)C2(F)F)c(=O)n1 [Gemcitabine] + Cc1nc(Nc2ncc(C(=O)Nc3c(C)cccc3Cl)s2)cc(N2CCN(CCO)CC2)n1 [Dasatinib] (partner 0.075 µM)
In short: as §1

Gemcitabine + Pemetrexed = compound: Nc1ccn([C@@H]2O[C@H](CO)[C@@H](O)C2(F)F)c(=O)n1 [Gemcitabine] + Nc1nc2[nH]cc(CCc3ccc(C(=O)N[C@@H](CCC(=O)O)C(=O)O)cc3)c2c(=O)[nH]1 [Pemetrexed] (partner 0.2 µM)
In short: as §1

[1] = compound: Nc1ccn([C@@H]2O[C@H](CO)[C@@H](O)C2(F)F)c(=O)n1 [Gemcitabine] + CC(=O)c1c(C)c2cnc(Nc3ccc(N4CCNCC4)cn3)nc2n(C2CCCC2)c1=O [Palbociclib] (partner 0.5 µM)
In short: as §1

Cell Line	relative viability (Gemcitabine + Vorinostat; first compound 0.001 µM)	relative viability (Gemcitabine + Vorinostat; first compound 0.003162 µM)	relative viability (Gemcitabine + Vorinostat; first compound 0.01 µM)	relative viability (Gemcitabine + Vorinostat; first compound 0.03162 µM)	relative viability (Gemcitabine + Vorinostat; first compound 0.1 µM)	relative viability (Gemcitabine + Dasatinib; first compound 0.001 µM)	relative viability (Gemcitabine + Dasatinib; first compound 0.003162 µM)	relative viability (Gemcitabine + Dasatinib; first compound 0.01 µM)	relative viability (Gemcitabine + Dasatinib; first compound 0.03162 µM)	relative viability (Gemcitabine + Dasatinib; first compound 0.1 µM)	relative viability (Gemcitabine + Pemetrexed; first compound 0.001 µM)	relative viability (Gemcitabine + Pemetrexed; first compound 0.003162 µM)	relative viability (Gemcitabine + Pemetrexed; first compound 0.01 µM)	relative viability (Gemcitabine + Pemetrexed; first compound 0.03162 µM)	relative viability (Gemcitabine + Pemetrexed; first compound 0.1 µM)	relative viability ([1]; first compound 0.001 µM)	relative viability ([1]; first compound 0.003162 µM)	relative viability ([1]; first compound 0.01 µM)	relative viability ([1]; first compound 0.03162 µM)	relative viability ([1]; first compound 0.1 µM)
201T	0.999	1.04	0.93	0.43	0.253	0.551	0.654	0.472	0.32	0.29	0.291	0.327	0.288	0.254	0.286	0.341	0.363	0.317	0.359	0.323
A-427	0.826	0.857	0.671	0.321	0.284	0.67	0.629	0.183	0.126	0.109	0.986	0.93	0.851	0.351	0.249	0.552	0.492	0.421	0.326	0.235
ABC-1		1.26	1.06	0.303	0.256	0.548	0.483	0.373	0.175	0.175							0.547	0.626	0.353	0.347
BEN	0.653	0.55	0.309	0.253	0.331	0.331	0.254	0.18	0.0876	0.109	0.774	0.417	0.277	0.164	0.223	0.448	0.38	0.364	0.291	0.273
CAL-12T	0.864	0.744	0.715	0.272	0.178	0.473	0.395	0.302	0.128	0.114	1.38	1.07	1.04	0.286	0.156	0.628	0.48	0.292	0.161	0.16
COR-L23	0.486	0.347	0.092	0.0851	0.1	0.606	0.495	0.201	0.0891	0.0729	0.198	0.19	0.19	0.14	0.129	0.277	0.214	0.119	0.112	0.0964
COR-L 105	0.82	0.726	0.56	0.336	0.27	0.295	0.318	0.274	0.198	0.154	1.32	1.01	0.895	0.37	0.282	0.398	0.4	0.366	0.347	0.326
ChaGo-K-1	0.772	0.68	0.301	0.201	0.177	0.535	0.544	0.205	0.144	0.166	0.247	0.23	0.23	0.209	0.183	0.99	0.803	0.31	0.186	0.167
EKVX	0.747	0.686	0.618	0.27	0.217	0.471	0.658	0.546	0.232	0.172	0.351	0.333	0.133	0.151	0.14	0.412	0.284	0.237	0.168	0.154
EMC-BAC-2	0.343	0.402	0.234	0.148	0.198	0.348	0.352	0.181	0.124	0.137	0.439	0.454	0.389	0.27	0.292	0.529	0.515	0.46	0.256	0.25
EPLC-272H	0.25	0.29	0.254	0.112	0.056	0.421	0.433	0.153	0.112	0.0503	0.316	0.33	0.132	0.178	0.108	0.384	0.323	0.275	0.244	0.21
H3255	0.834	0.848	0.289	0.296	0.251	0.333	0.38	0.349	0.225	0.296	0.565	0.519	0.591	0.335	0.224	0.348	0.347	0.286	0.285	0.264
HARA	0.497	0.538	0.444	0.0835	0.0515	0.244	0.331	0.241	0.228	0.0727	0.272	0.263	0.236	0.196	0.0974	0.234	0.283	0.219	0.179	0.139
HCC-15	0.908	0.815	0.739	0.247	0.109	0.589	0.666	0.561	0.0908	0.0718	0.224	0.226	0.226	0.229	0.109	0.811	0.722	0.634	0.327	0.0961
HCC-44	1.1	1.13	1.04	0.651	0.418						0.634	0.68	0.66	0.632	0.63	0.934	0.908	0.938	0.717	0.447
HCC-78	0.405	0.276	0.215	0.225	0.23	0.322	0.31	0.232	0.154	0.209	0.92	0.879	0.895	0.9	0.896	0.495	0.446	0.388	0.302	0.294
HCC-366	0.361	0.458	0.134	0.0306	0.0198	0.633	0.637	0.155	0.0301	0.0176	0.155	0.212	0.189	0.0374	0.0257	0.402	0.383	0.205	0.0402	0.026
HCC-827	0.883	0.806	0.426	0.19	0.179	0.295	0.226	0.319	0.253	0.186	0.301	0.224	0.248	0.176	0.145	0.497	0.304	0.309	0.197	0.164

Cell Line	relative viability (Gemcitabine + Vorinostat; first compound 0.001 µM)	relative viability (Gemcitabine + Vorinostat; first compound 0.003162 µM)	relative viability (Gemcitabine + Vorinostat; first compound 0.01 µM)	relative viability (Gemcitabine + Vorinostat; first compound 0.03162 µM)	relative viability (Gemcitabine + Vorinostat; first compound 0.1 µM)	relative viability (Gemcitabine + Dasatinib; first compound 0.001 µM)	relative viability (Gemcitabine + Dasatinib; first compound 0.003162 µM)	relative viability (Gemcitabine + Dasatinib; first compound 0.01 µM)	relative viability (Gemcitabine + Dasatinib; first compound 0.03162 µM)	relative viability (Gemcitabine + Dasatinib; first compound 0.1 µM)	relative viability (Gemcitabine + Pemetrexed; first compound 0.001 µM)	relative viability (Gemcitabine + Pemetrexed; first compound 0.003162 µM)	relative viability (Gemcitabine + Pemetrexed; first compound 0.01 µM)	relative viability (Gemcitabine + Pemetrexed; first compound 0.03162 µM)	relative viability (Gemcitabine + Pemetrexed; first compound 0.1 µM)	relative viability ([1]; first compound 0.001 µM)	relative viability ([1]; first compound 0.003162 µM)	relative viability ([1]; first compound 0.01 µM)	relative viability ([1]; first compound 0.03162 µM)	relative viability ([1]; first compound 0.1 µM)
HOP-62	0.661	0.353	0.0836	0.0926	0.0697	0.667	0.571	0.163	0.0786	0.0707	0.323	0.299	0.15	0.0689	0.0761	0.358	0.339	0.184	0.0959	0.0958
IA-LM	0.943	0.907	0.865	0.0796	0.0532															
LC-2-ad	0.7	0.804	0.665	0.522	0.199	0.567	0.226	0.193	0.167	0.138	0.266	0.28	0.256	0.255	0.233	0.509	0.555	0.424	0.496	0.317
LCLC-97TM1	0.51	0.314	0.149	0.0661	0.0642	0.819	0.803	0.429	0.159	0.106	0.174	0.19	0.0994	0.0729	0.0912	0.17	0.135	0.134	0.0816	0.0933
LCLC-103H	0.761	0.856	0.754	0.585	0.46	0.54	0.53	0.502	0.179	0.223	0.423	0.435	0.44	0.407	0.392	0.491	0.504	0.497	0.42	0.406
LK-2	0.265	0.268	0.155	0.164	0.146	0.299	0.356	0.174	0.201	0.158	0.298	0.321	0.238	0.14	0.114	0.798	0.696	0.403	0.119	0.126
LOU-NH91	0.943	0.761	0.421	0.22	0.268	0.545	0.28	0.455	0.244	0.242	0.397	0.413	0.441	0.269	0.286	0.524	0.522	0.478	0.474	0.412
LU99A	0.509	0.577	0.502	0.523	0.531	0.555	0.56	0.558	0.516	0.507	0.177	0.181	0.186	0.198	0.214	0.412	0.43	0.409	0.404	0.421
LXF-289	0.754	0.731	0.292	0.107	0.0902	0.227	0.22	0.0855	0.0424	0.0448	0.901	0.964	0.642	0.102	0.0843	0.606	0.604	0.428	0.127	0.14
NCI-H23	0.504	0.122	0.11	0.106	0.109	0.865	0.36	0.126	0.135	0.1	0.555	0.223	0.147	0.143	0.143	0.383	0.245	0.158	0.156	0.139
NCI-H322M	0.864	0.408	0.337	0.384	0.44	0.295	0.241	0.28	0.274	0.252	0.658	0.367	0.273	0.329	0.363	0.463	0.396	0.336	0.452	0.425
NCI-H358	0.988	0.186	0.0888	0.113	0.0707	0.21	0.151	0.0931	0.0759	0.0931	0.145	0.148	0.146	0.118	0.108	0.124	0.0834	0.0975	0.0732	0.08
NCI-H596	0.657	0.497	0.272	0.251	0.2	0.528	0.521	0.289	0.242	0.215	0.531	0.491	0.476	0.403	0.319					
NCI-H727	1.29	0.716	0.456	0.513	0.428	0.303	0.33	0.295	0.264	0.345						0.674	0.592	0.574	0.597	0.503
NCI-H1563						0.433	0.46	0.457	0.378	0.373	0.748	0.852	0.833	0.407	0.414					
NCI-H1648	0.435	0.388	0.461	0.288	0.209						0.836	0.64	0.628	0.339	0.349	0.267	0.273	0.262	0.226	0.327
NCI-H1792						0.785	0.485	0.329	0.192	0.142	0.773	0.174	0.0569	0.0984	0.0556	0.699	0.596	0.395	0.254	0.194
